Data set [1] in a line: Antiinflammatory activity in PMA-induced human neutrophils assessed as inhibition of superoxide production. Conditions: Neutrophil. It is filed as functional, cell-based.
Data set [2] is described as follows: Toxicity against human HL60 cells assessed as inhibition of cell proliferation. It counts as cell-based. The following applies: HL-60 cells.

For the compound `CC1=CC[C@H]2C(C)(C)CCC[C@]2(C)[C@H]1CC1=C(O)C(=O)C=CC1=O`, the values for the IC50 in data set [1] and in data set [2] were 11000 nM and 340 nM, respectively.
With `CC(=O)Oc1ccc(O)c(C[C@H]2C(C)=CC[C@H]3C(C)(C)CCC[C@]23C)c1O`, the results for the IC50 in data set [1] and in data set [2] were 3000 nM and 370 nM, respectively.
